Measurements published in patent publication US9409952B2, “Peptide-compound cyclization method” (Chugai Seiyaku Kabushiki Kaisha, priority 2011, dated 2016).
Like-named read-outs stand apart in the source and are kept apart here. Starred links: 1 amine or outer side, 2 acyl side, 3 side chain; linkers in the order of their positions; H or OH if unused. Positions of bridges follow the written chain, without caps; N, C: chain ends. Non-standard residues stand in square brackets, D forms with d. Residues, ends and D or L forms follow the SMILES beside them. ξ: configuration not given here. *: point of attachment. NMeF = CN[C@@H](Cc1ccccc1)C(=O)O; NMeβAla = CN(CCC(=O)[*:2])[*:1]; NMeL = CN[C@@H](CC(C)C)C(=O)O; ξNMeF = CNC(Cc1ccccc1)C(=O)O; NMeV = CN[C@H](C(=O)O)C(C)C; NMeA = CN[C@@H](C)C(=O)O; Piperidide = C1CCN(*)CC1; dNMeA = CN[C@H](C)C(=O)O; Sar = CNCC(=O)O

Key:
[1] = PAMPA (parallel artificial membrane permeability assay); type: in vitro ADME; settings: PAMPA
In short: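 Artificial membrane was 10% (w/v) egg lecithin plus 0.5% (w/v) cholesterol in dodecane on a PVDF filter. A 10 mM DMSO stock was added at 0.5% (v/v) to donor buffer (50 mM MOPSO, pH 6.5, 5.0% glycocholic acid). After 18 h at 37 °C, LC/MS or LC/UV gave donor and acceptor levels for Pe.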

[2] = Metabolic stability in human hepatic microsome; type: in vitro ADME; settings: microsomes
[3] = membrane permeation rate (Pe), 50 mM MOPSO buffer pH 6.5 with 5.0% glycocholic acid, 37° C., 18 hours, read-out: iPAMPA Pe
[4] = pH 7.4, human hepatic microsome, NADPH(+), read-out: CL NADPH(+)

| SMILES | Papp at 18 hours, 50 µM ([1]; pH 6.5) [×10⁻⁶ cm/s] | microsomal CLint at 1 uM ([2]; human, pH 7.4, CL NADPH(+)) [µL/min/mg] | Papp at 18 hours, 50 µM [1, 3] [×10⁻⁶ cm/s] | microsomal CLint at 1 uM [2, 4] [µL/min/mg] |
| --- | --- | --- | --- | --- |
| CC(C)C[C@H]1C(=O)N(C)[C@@H](Cc2ccccc2)C(=O)N(C)[C@@H](Cc2ccccc2)C(=O)NCC(=O)N(C)[C@@H](C)C(=O)N[C@@H]([C@@H](C)O)C(=O)N[C@H](C(=O)N(C)[C@@H](Cc2ccccc2)C(=O)N(C)[C@@H](Cc2ccccc2)C(=O)N[C@@H](C)C(=O)N2CCCCC2)CC(=O)N(C)[C@@H](C)C(=O)N[C@@H](C(C)C)C(=O)N1C [DP-309] ([NMeA]V[NMeL][NMeF][NMeF]G[NMeA]TD[NMeF][NMeF]A-Piperidide; lactam N-9) | 26 | 212 | – | – |
| CC(C)C[C@H]1C(=O)N(C)[C@@H](CC(C)C)C(=O)N[C@H](C(=O)N(C)[C@@H](Cc2ccccc2)C(=O)N[C@@H](C)C(=O)N2CCCCC2)CC(=O)N(C)[C@@H](C)C(=O)N[C@@H](C(C)C)C(=O)N(C)[C@@H](Cc2ccccc2)C(=O)N(C)CC(=O)N[C@@H]([C@@H](C)O)C(=O)N(C)[C@@H](C)C(=O)N1C [DP-310] ([NMeA]V[NMeF][Sar]T[NMeA][NMeL][NMeL]D[NMeF]A-Piperidide; lactam N-9) | 35 | 143 | – | – |
| CC(C)C[C@H]1C(=O)N[C@@H](Cc2ccccc2)C(=O)N[C@H](C(=O)N(C)[C@@H](Cc2ccccc2)C(=O)N[C@@H](C)C(=O)N2CCCCC2)CC(=O)N(C)[C@@H](C)C(=O)N[C@@H]([C@@H](C)O)C(=O)N(C)[C@@H](C)C(=O)N[C@@H](C(C)C)C(=O)N(C)CC(=O)N(C)[C@@H](Cc2ccccc2)C(=O)N1C [DP-311] ([NMeA]T[NMeA]V[Sar][NMeF][NMeL]FD[NMeF]A-Piperidide; lactam N-9) | 48 | 74 | – | – |
| CC(C)C[C@H]1C(=O)N[C@H](C(=O)N(C)[C@@H](Cc2ccccc2)C(=O)N[C@@H](C)C(=O)N2CCCCC2)CC(=O)N(C)[C@H](C)C(=O)N(C)[C@@H](Cc2ccccc2)C(=O)N(C)[C@@H](CC(C)C)C(=O)N[C@@H]([C@@H](C)O)C(=O)N(C)[C@@H](C)C(=O)N(C)[C@@H](CC(C)C)C(=O)N[C@@H](C(C)C)C(=O)N1C [DP-313] ([dNMeA][NMeF][NMeL]T[NMeA][NMeL]V[NMeL]D[NMeF]A-Piperidide; lactam N-9) | 21 | 61 | – | – |
| CC(C)C[C@H]1C(=O)N(C)[C@@H](Cc2ccccc2)C(=O)NCC(=O)N(C)[C@@H](Cc2ccccc2)C(=O)N(C)[C@@H](C)C(=O)N[C@@H]([C@@H](C)O)C(=O)N[C@H](C(=O)N(C)[C@@H](Cc2ccccc2)C(=O)N(C)[C@@H](Cc2ccccc2)C(=O)N[C@@H](C)C(=O)N2CCCCC2)CC(=O)N(C)CC(=O)N[C@@H](C(C)C)C(=O)N1C [DP-314] ([Sar]V[NMeL][NMeF]G[NMeF][NMeA]TD[NMeF][NMeF]A-Piperidide; lactam N-9) | – | – | 49 | 133 |
| CC(C)C[C@H]1C(=O)N[C@@H](C(C)C)C(=O)N[C@H](C(=O)N(C)C(Cc2ccccc2)C(=O)N(C)[C@@H](Cc2ccccc2)C(=O)N[C@@H](C)C(=O)N2CCCCC2)CC(=O)N[C@H](C)C(=O)N(C)[C@@H](C)C(=O)N(C)[C@@H](Cc2ccccc2)C(=O)N(C)[C@@H](CC(C)C)C(=O)N[C@@H]([C@@H](C)O)C(=O)N(C)CC(=O)N1C (stereo partly drawn) [DP-315] ([dA][NMeA][NMeF][NMeL]T[Sar][NMeL]VD[ξNMeF][NMeF]A-Piperidide; lactam N-9) | 30 | 63 | – | – |
| CC(C)C[C@H]1C(=O)N(C)[C@@H](Cc2ccccc2)C(=O)N(C)[C@@H](C)C(=O)N[C@@H](Cc2ccccc2)C(=O)N[C@H](C(=O)N(C)[C@@H](Cc2ccccc2)C(=O)N[C@@H](C)C(=O)N2CCCCC2)CC(=O)N(C)CC(=O)N[C@@H]([C@@H](C)O)C(=O)N(C)CC(=O)N[C@@H](C(C)C)C(=O)N1C [DP-316] ([Sar]T[Sar]V[NMeL][NMeF][NMeA]FD[NMeF]A-Piperidide; lactam N-9) | 12 | 35 | – | – |
| CC(C)C[C@H]1C(=O)N(C)[C@@H](C(C)C)C(=O)N[C@@H]([C@@H](C)O)C(=O)N(C)CC(=O)N(C)[C@@H](C)C(=O)N(C)[C@@H](C)C(=O)N[C@@H](C(C)C)C(=O)N[C@H](C(=O)N2CCCCC2)CC(=O)N(C)[C@H](C)C(=O)N(C)[C@@H](C)C(=O)N[C@@H](C)C(=O)N(C)[C@@H](Cc2ccccc2)C(=O)N1C [DP-319] ([dNMeA][NMeA]A[NMeF][NMeL][NMeV]T[Sar][NMeA][NMeA]VD-Piperidide; lactam N-12) | – | – | 1 | 12 |
| CC[C@H](C)[C@@H]1NC(=O)[C@H]([C@@H](C)O)NC(=O)[C@H](Cc2ccccc2)NC(=O)[C@H](CC(C)C)NC(=O)[C@@H](C)NC(=O)C[C@@H](C(=O)N2CCCCC2)NC(=O)[C@H](CC(C)C)NC(=O)[C@H](CC(C)C)N(C)C(=O)[C@H](CC(C)C)NC(=O)CNC(=O)[C@H](Cc2ccccc2)NC1=O [DP-321] ([dA]LFTIFGL[NMeL]LD-Piperidide; lactam N-11) | – | – | 6.2 | 19 |
| CC(C)C[C@H]1C(=O)N(C)[C@@H](C(C)C)C(=O)N(C)[C@@H](C)C(=O)N[C@@H](Cc2ccccc2)C(=O)N(C)[C@@H](C)C(=O)N[C@H](C(=O)N2CCCCC2)CC(=O)N(C)[C@@H](C)C(=O)N[C@@H]([C@@H](C)O)C(=O)N(C)[C@@H](C)C(=O)N[C@@H](C)C(=O)N(C)[C@@H](Cc2ccccc2)C(=O)N1C [DP-322] ([NMeA]T[NMeA]A[NMeF][NMeL][NMeV][NMeA]F[NMeA]D-Piperidide; lactam N-11) | – | – | 10 | 74 |
| CC[C@H](C)[C@@H]1NC(=O)[C@H](CC(C)C)NC(=O)[C@H](CC(C)C)N(C)C(=O)[C@H](CC(C)C)NC(=O)[C@H](CC(C)C)NC(=O)[C@H](Cc2ccccc2)NC(=O)[C@H](CC(C)C)NC(=O)[C@H](Cc2ccccc2)NC(=O)[C@H]([C@@H](C)O)NC(=O)CCN(C)C(=O)C[C@@H](C(=O)N2CCCCC2)NC1=O [DP-323] ([NMeβAla]TFLFLL[NMeL]LID-Piperidide; lactam N-11) | – | – | 7.8 | 182 |
| CC(C)C[C@@H]1NC(=O)CCN(C)C(=O)C[C@@H](C(=O)N2CCCCC2)NC(=O)[C@H](CC(C)C)N(C)C(=O)[C@H](CC(C)C)NC(=O)[C@H](Cc2ccccc2)NC(=O)[C@H](C)NC(=O)[C@H]([C@@H](C)O)NC(=O)[C@H](CC(C)C)NC(=O)CN(C)C(=O)[C@H](CC(C)C)NC1=O [DP-324] ([NMeβAla]LL[Sar]LTAFL[NMeL]D-Piperidide; lactam N-11) | – | – | 7.7 | 59 |
| CC(C)C[C@H]1C(=O)N(C)[C@@H](C)C(=O)N[C@@H](C)C(=O)N[C@H](C(=O)N2CCCCC2)CC(=O)N(C)CCC(=O)N(C)[C@@H](Cc2ccccc2)C(=O)N(C)[C@@H](C)C(=O)N[C@@H]([C@@H](C)O)C(=O)N(C)[C@@H](C)C(=O)N[C@@H](Cc2ccccc2)C(=O)N(C)[C@@H](C(C)C)C(=O)N1C [DP-326] ([NMeβAla][NMeF][NMeA]T[NMeA]F[NMeV][NMeL][NMeA]AD-Piperidide; lactam N-11) | – | – | 2.5 | 15 |
| CC[C@H](C)[C@@H]1NC(=O)[C@@H](C)N(C)C(=O)C[C@@H](C(=O)N2CCCCC2)NC(=O)[C@H](Cc2ccccc2)NC(=O)[C@H]([C@@H](C)O)NC(=O)[C@H](CC(C)C)NC(=O)[C@H](CC(C)C)NC(=O)CN(C)C(=O)[C@H](CC(C)C)NC(=O)[C@H](C)NC(=O)[C@H](CC(C)C)NC1=O [DP-327] ([dNMeA]ILAL[Sar]LLTFD-Piperidide; lactam N-11) | – | – | 3.5 | 70 |
| CC[C@H](C)[C@@H]1NC(=O)[C@H]([C@@H](C)O)NC(=O)[C@H](CC(C)C)NC(=O)[C@H](Cc2ccccc2)NC(=O)[C@H](CC(C)C)NC(=O)[C@H](C)NC(=O)C[C@@H](C(=O)N2CCCCC2)NC(=O)[C@H](Cc2ccccc2)NC(=O)[C@H](CC(C)C)NC(=O)[C@H](Cc2ccccc2)N(C)C1=O [DP-329] (ALFLTI[NMeF]LFD-Piperidide; lactam N-10) | – | – | 2.4 | 66 |
| CC[C@H](C)[C@@H]1NC(=O)[C@H](CC(C)C)NC(=O)[C@H](Cc2ccccc2)NC(=O)[C@H](CC(C)C)NC(=O)CN(C)C(=O)[C@H](Cc2ccccc2)NC(=O)[C@H](C)NC(=O)C[C@@H](C(=O)N2CCCCC2)NC(=O)[C@H](Cc2ccccc2)NC(=O)[C@H]([C@@H](C)O)NC1=O [DP-330] (AF[Sar]LFLITFD-Piperidide; lactam N-10) | – | – | 9.9 | 61 |
| CC[C@H](C)[C@@H]1NC(=O)[C@H](CC(C)C)NC(=O)[C@H](C)N(C)C(=O)C[C@@H](C(=O)N2CCCCC2)NC(=O)[C@H](CC(C)C)NC(=O)[C@H](Cc2ccccc2)NC(=O)[C@H](Cc2ccccc2)N(C)C(=O)[C@H](CC(C)C)NC(=O)[C@H]([C@@H](C)O)NC(=O)[C@H](Cc2ccccc2)NC1=O [DP-331] ([NMeA]LIFTL[NMeF]FLD-Piperidide; lactam N-10) | – | – | 0.24 | 198 |
| CC[C@H](C)[C@@H]1NC(=O)[C@H](Cc2ccccc2)NC(=O)[C@H](C)N(C)C(=O)C[C@@H](C(=O)N2CCCCC2)NC(=O)[C@H](CC(C)C)NC(=O)[C@H](Cc2ccccc2)NC(=O)[C@H](Cc2ccccc2)N(C)C(=O)[C@H](CC(C)C)NC(=O)[C@H]([C@@H](C)O)NC(=O)[C@H](CC(C)C)N(C)C1=O [DP-332] ([NMeA]FI[NMeL]TL[NMeF]FLD-Piperidide; lactam N-10) | – | – | 14 | 284 |
